Data set [1] has as its system phospho-serine 2056 DNA-PK in HCT116 cells. The data set can be described thus: DNA-PK phosphorylation at serine 2056 (cellular), ELISA in bleomycin-treated HCT116 cells. It is filed as cell-based. As to conditions: bleomycin-treated HCT116 cells, read-out: IC50 pDNA-PK. In short, it runs like this:
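HCT116, MEM alpha + 10% FCS, 37 °C/10% CO2, seeded o/n. Cpd + 10 μM bleomycin, 6 h. ELISA, chemiluminescence; phospho/total DNA-PKcs ratio, DMSO = blank.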

In another data set the target is Kv11.1 (hERG) channel (Homo sapiens (Human), UniProt Q12809). Put plainly: Kv11.1 ion channel binding assay (Predictor hERG fluorescence polarisation). Conditions: class symbol marked with asterisk (*). The method, then:
D) Kv11.1 Ion Channel Binding Assay
Kv11.1 (hERG=human ether a go-go related […]) is a cardiac K^+ channel which should if possible not interact with the test substances. This interaction is determined quantitatively with the aid of the Predictor™ hERG Fluorescence Polarizations (FP) Assays from Life Technologies. In the case of this assay principle, cardiomyocyte cell membranes having a certain proportion of Kv11.1 channels are isolated. A dye-labelled Kv11.1 binding partner gives a high fluorescence polarisation signal by interaction with the Kv11.1. In the case of displacement of the dye, a reduction in the fluorescence polarisation signal occurs.
The assay is carried out automatically as follows: 15 nl of the test substances (highest concentration: 10 mM, 10 concentrations: dilution factors 1:3.16, DMSO) are transferred into an empty microtitre plates having 384 wells by means of an acoustic pipetter. 3 μl of the isolated membranes are subsequently added. Membranes and test substances are incubated at 22° C. for 15 min (+/−5 min). In the next step, the dye-labelled binding partner is added, followed by incubation at 22° C. After incubation for two hours, the measurement of the fluorescence polarisation is carried out on an Envision multimode Reader. Measured raw data are standardised with the aid of Genedata Assay Analyzer. The IC50 and % effect values are calculated in Genedata Condoseo.

Setting [2] is: Homo sapiens, HCT-116, phospho-serine 2056 DNA-PK.

Molecules are shown by their SMILES. Where two headings read alike, the source gives them in different places.

Sequence of Kv11.1 (hERG) channel (Q12809 whole entry): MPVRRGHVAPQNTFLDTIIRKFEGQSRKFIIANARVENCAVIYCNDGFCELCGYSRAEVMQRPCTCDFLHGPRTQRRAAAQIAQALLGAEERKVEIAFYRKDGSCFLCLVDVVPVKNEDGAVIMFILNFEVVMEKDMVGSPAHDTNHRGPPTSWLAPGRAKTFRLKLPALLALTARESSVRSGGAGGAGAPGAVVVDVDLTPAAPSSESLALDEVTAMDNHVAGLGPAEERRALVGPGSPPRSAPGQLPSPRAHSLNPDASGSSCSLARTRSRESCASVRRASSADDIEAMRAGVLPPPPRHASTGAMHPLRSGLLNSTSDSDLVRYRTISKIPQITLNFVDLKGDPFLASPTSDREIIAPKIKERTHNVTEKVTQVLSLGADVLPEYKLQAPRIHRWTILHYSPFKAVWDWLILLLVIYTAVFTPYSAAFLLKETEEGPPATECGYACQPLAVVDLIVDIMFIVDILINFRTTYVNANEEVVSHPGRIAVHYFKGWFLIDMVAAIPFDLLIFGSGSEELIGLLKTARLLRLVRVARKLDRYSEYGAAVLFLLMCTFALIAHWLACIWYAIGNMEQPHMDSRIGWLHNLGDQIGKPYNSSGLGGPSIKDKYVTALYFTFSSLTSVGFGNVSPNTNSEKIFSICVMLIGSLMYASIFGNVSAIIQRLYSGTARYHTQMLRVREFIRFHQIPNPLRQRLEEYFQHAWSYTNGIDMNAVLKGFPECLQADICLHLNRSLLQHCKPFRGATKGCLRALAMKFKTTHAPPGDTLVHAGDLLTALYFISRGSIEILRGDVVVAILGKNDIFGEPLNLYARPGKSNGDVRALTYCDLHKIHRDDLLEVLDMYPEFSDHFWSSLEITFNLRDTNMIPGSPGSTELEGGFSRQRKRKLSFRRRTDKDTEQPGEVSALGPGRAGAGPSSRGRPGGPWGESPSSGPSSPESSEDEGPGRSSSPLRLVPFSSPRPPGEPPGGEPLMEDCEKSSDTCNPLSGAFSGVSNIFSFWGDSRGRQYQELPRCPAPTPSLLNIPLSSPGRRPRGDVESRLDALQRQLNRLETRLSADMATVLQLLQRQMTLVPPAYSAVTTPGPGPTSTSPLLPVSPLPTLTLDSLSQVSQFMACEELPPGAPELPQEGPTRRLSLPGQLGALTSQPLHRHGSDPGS

As to `COc1nccnc1C(O)c1cc(-c2ncnc3cc(N4CCOCC4)cc(F)c23)c(F)cc1Cl` (centres unmarked) [Example 266, [2-Chloro-4-fluoro-5-(5-fluoro-7-morpholin-4-yl-quinazolin-4-yl)-phenyl]-(3-methoxy-pyrazin-2-yl)-methanol], in data set [1] (phospho-serine 2056 DNA-PK), the IC50 was below 0.5 µM. Besides, the “Ki [Kv1.11 hERG]” value on Kv11.1 (hERG) channel is “A*”.

Take `Cc1nccnc1C(C(N)=O)c1cc(-c2ncnc3cc(N4CCOCC4)sc23)c(F)cc1Cl` (centres unmarked) [Example 269, 2-[2-Chloro-4-fluoro-5-(6-morpholin-4-yl-thieno[3,2-d}-pyrimidin-4-yl)-phenyl]-2-(3-methyl-pyrazin-2-yl)-acetamide]: in data set [1] (setting [2]), the IC50 was 0.5 to 5 µM. The “Ki [Kv1.11 hERG]” value at Kv11.1 (hERG) channel was “A*”.

Regarding `CN1N=C(C(O)c2cc(-c3ncnc4cc(N5CCOCC5)ccc34)c(F)cc2Cl)CCC1=O` (centres unmarked) [Example 288, 6-{[2-Chloro-4-fluoro-5-(7-morpholin-4-yl-quinazolin-4-yl)-phenyl]hydroxy-methyl}-2-methyl-4,5-dihydro-2H-pyridazin-3-one], the IC50 in data set [1] (setting [2]) fell in the range of 5 to 10 µM. Further, the “Ki [Kv1.11 hERG]” value at Kv11.1 (hERG) channel is recorded as “A*”.

Consider `Cc1nccnc1C(O)c1ccc(F)c(-c2ncnc3cc(N4CCOCC4)cc(F)c23)c1` (centres unmarked) [Example 268, [4-Fluoro-3-(5-fluoro-7-morpholin-4-yl-quinazolin-4-yl)-phenyl]-(3-methyl-pyrazin-2-yl)-methanol], for which the IC50 in data set [1] (setting [2]) was below 0.5 µM. Moreover, the “Ki [Kv1.11 hERG]” value at Kv11.1 (hERG) channel is reported as “A*”.

With `COc1ccc(C(O)c2ccc(F)c(-c3ncnc4cc(N5CCOCC5)c(F)cc34)c2)nn1` (centres unmarked) [Example 282, [4-Fluoro-3-(6-fluoro-7-morpholin-4-yl-quinazolin-4-yl)-phenyl]-(6-methoxy-pyridazin-3-yl)-methanol], in data set [1] (setting [2]), the IC50 lay in the range of 10 to 30 µM. Besides, the “Ki [Kv1.11 hERG]” value at Kv11.1 (hERG) channel was “A*”.

Regarding `COc1ccc(C(O)c2cc(-c3ncnc4cc(N5CCOCC5)cc(F)c34)c(F)cc2Cl)nn1` (centres unmarked) [Example 278, [2-chloro-4-fluoro-5-(5-fluoro-7-morpholin-4-ylquinazolin-4-yl)phenyl]-(6-methoxypyridazin-3-yl)methanol], the half-maximal inhibitory concentration (IC50) in data set [1] (phospho-serine 2056 DNA-PK) is below 0.5 µM. Besides, the “Ki [Kv1.11 hERG]” value at Kv11.1 (hERG) channel is recorded as “A*”.

In the case of `Cc1nccnc1[C@@H](O)c1ccc(F)c(-c2ncnc3cc(N4CCOCC4)cc(F)c23)c1` [Example 251, (S)-[4-fluoro-3-(5-fluoro-7-morpholin-4-ylquinazolin-4-yl)-phenyl]-(3-methyl-pyrazin-2-yl)-methanol], the IC50 in data set [1] (setting [2]) was in the range of 0.5 to 5 µM. The “Ki [Kv1.11 hERG]” value at Kv11.1 (hERG) channel is recorded as “A*”.

Turning to `COc1ccc(C(O)c2ccc(F)c(-c3ncnc4cc(N5CCOCC5)cc(F)c34)c2)nn1` (centres unmarked) [Example 256, [4-Fluoro-3-(5-fluoro-7-morpholin-4-yl-quinazolin-4-yl)-phenyl]-(6-methoxy-pyridazin-3-yl)-methanol], the IC50 in data set [1] (phospho-serine 2056 DNA-PK) is below 0.5 µM. On Kv11.1 (hERG) channel, the “Ki [Kv1.11 hERG]” value is listed as “A*”.

Consider `Cc1nccnc1C(O)c1ccc(F)c(-c2ncnc3cc(N4CCOCC4)sc23)c1` (centres unmarked) [Example 245, [4-Fluoro-3-(6-morpholin-4-yl-thieno[3,2-d}-pyrimidin-4-yl)-phenyl]-(3-methyl-pyrazin-2-yl)-methanol], for which the IC50 in data set [1] (setting [2]) is below 0.5 µM. The “Ki [Kv1.11 hERG]” value at Kv11.1 (hERG) channel is recorded as “A*”.

`OC(c1ccc(F)c(-c2ncnc3cc(N4CCOCC4)ccc23)c1)c1nccn2ncnc12` (centres unmarked) [Example 279, [4-Fluoro-3-(7-morpholin-4-yl-quinazolin-4-yl)-phenyl]-[1,2,4]-triazolo[1,5-a]-pyrazin-8-ylmethanol]: the IC50 in data set [1] (setting [2]) was in the range of 5 to 10 µM. For the same molecule, the “Ki [Kv1.11 hERG]” value at Kv11.1 (hERG) channel was “A*”.

For the molecule `CNC(=O)C(c1cc(-c2ncnc3cc(N4CCOCC4)ccc23)c(F)cc1Cl)c1nccnc1C` (centres unmarked) [Example 254, 2-[2-Chloro-4-fluoro-5-(7-morpholin-4-yl-quinazolin-4-yl)-phenyl]-N-methyl-2-(3-methyl-pyrazin-2-yl)acetamide], the IC50 in data set [1] (setting [2]) lay in the range of 10 to 30 µM. The “Ki [Kv1.11 hERG]” value on Kv11.1 (hERG) channel is listed as “A*”.

For the molecule `[2H]C1([2H])OC([2H])([2H])C([2H])([2H])N(c2ccc3c(-c4cc(C(O)c5nccnc5OC)c(Cl)cc4F)ncnc3c2)C1([2H])[2H]` (centres unmarked) [Example 258, [2-Chloro-4-fluoro-5-[7-(2,2,3,3,5,5,6,6-octadeuterio-morpholin-4-yl)-quinazolin-4-yl- ]phenyl]-(3-methoxy-pyrazin-2-yl)-methanol], the IC50 in data set [1] (phospho-serine 2056 DNA-PK) is below 0.5 µM. Also, the “Ki [Kv1.11 hERG]” value at Kv11.1 (hERG) channel is “A*”.

Consider `COc1nccnc1C(O)c1cc(-c2ncnc3cc(N4CCOCC4)cc(F)c23)c(F)cc1Cl` (centres unmarked) [Example 249, [2-Chloro-4-fluoro-5-(5-fluoro-7-morpholin-4-yl-quinazolin-4-yl)-phenyl]-(3-methoxy-pyrazin-2-yl)-methanol], for which, in data set [1] (setting [2]), the IC50 was below 0.5 µM. The “Ki [Kv1.11 hERG]” value at Kv11.1 (hERG) channel was “A*”.

The values are drawn from patent publication US11065253B2, “Arylquinazolines” (Merck Patent GmbH, priority 2013, dated 2021).
